Test results taken from patent US7157453B2, “Urea substituted imidazoquinolines” (3M Innovation Properties Company, priority 1999, dated 2007).

How the values were obtained:
[1] = test system: interferon (α); assay: Cytokine Induction in Human Cells: interferon (α) by ELISA; assay type: cell-based; conditions: PBMC; human PBMCs, incubated 18 to 24 hours, lowest concentration found to induce interferon
In short: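 Healthy-donor human PBMCs (1.5–2×10^6 cells/mL final, RPMI with 10% FBS) exposed to serially diluted compound (≤1% DMSO) for 18–24 h at 37 °C, 5% CO2. Supernatant IFN-α measured by ELISA; value reported is lowest concentration inducing interferon.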

[2] = test system: tumor necrosis factor (α); assay: Cytokine Induction in Human Cells: tumor necrosis factor (α) by ELISA; assay type: cell-based; conditions: PBMC; human PBMCs, incubated 18 to 24 hours, lowest concentration found to induce tumor necrosis factor
In short: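 Healthy-donor PBMCs (1.5–2×10^6 cells/mL final, RPMI with 10% FBS) incubated 18–24 h at 37 °C with compound in three- or ten-fold serial dilutions, DMSO ≤1% final. Supernatant TNF measured by ELISA; value is lowest concentration inducing TNF.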

SMILES	melting point	minimal effective concentration [1]	minimal effective concentration [2]
CCCCCc1nc2c(N)nc3ccccc3c2n1CCCCNC(=O)Nc1ccccc1 [Example 159, N-[4(4-amino-2-pentyl-1H-imidazo[4,5-c]quinolin-1-yl)butyl]-N′-phenylurea]	159 to 160.4 °C	1.11 µM	10 µM
CCCCc1nc2c(N)nc3ccccc3c2n1CCCCNC(=O)Nc1ccccc1 [Example 164, N-[4-(4-amino-2-butyl-1H-imidazo[4,5-c]quinolin-1-yl)butyl]-N′-phenylurea]	185 to 187 °C	0.04 µM	0.12 µM
Cc1nc2c(N)nc3c(c2n1CCCCNC(=O)N1CCOCC1)CCCC3 [Example 170, N-[4-(4-amino-2-methyl-6,7,8,9-tetrahydro-1H-imidazo[4,5-c]quinolin-1-yl)butyl]morpholine-4-carboxamide]	133.6 to 134.6 °C	0.12 µM	10 µM
Nc1nc2ccccc2c2c1nc(CCCOc1ccccc1)n2CCCCNC(=O)N1CCOCC1 [Example 171, N-{4-[4-amino-2-(3-phenoxypropyl)-1H-imidazo[4,5-c]quinolin-1-yl]butyl}morpholine-4-carboxamide]	71.5 to 72.1 °C	> 30 µM	10 µM
CC(C)(C)OC(=O)NCCCn1cnc2c(N)nc3ccccc3c21 [Example 173, tert-butyl 3-(4-amino-1H-imidazo[4,5-c]quinolin-1-yl)propylcarbamate]	196 to 198 °C	1.11 µM	10 µM
CC(C)(C)OC(=O)NCCCn1c(CCCOc2ccccc2)nc2c(N)nc3ccccc3c21 [Example 174, tert-butyl 3-[4-amino-2-(3-phenoxypropyl)-1H-imidazo[4,5-c]quinolin-1-yl]propylcarbamate]	151 to 153 °C	> 30 µM	> 30 µM
CCOCc1nc2c(N)nc3ccccc3c2n1CCCNC(=O)OC(C)(C)C [Example 175, tert-butyl 3-[4-amino-2-(ethoxymethyl)-1H-imidazo[4,5-c]quinolin-1-yl]propylcarbamate]	124 to 126 °C	0.04 µM	0.37 µM
Cc1nc2c(N)nc3ccccc3c2n1CCCNC(=O)OC(C)(C)C [Example 176, tert-butyl 3-(4-amino-2-methyl-1H-imidazo[4,5-c]quinolin-1-yl)propylcarbamate]	112 to 115 °C	0.12 µM	1.11 µM
CCOCc1nc2c(N)nc3ccccc3c2n1CCNC(=O)OC(C)(C)C [Example 177, tert-butyl 2-[4-amino-2-(ethoxymethyl)-1H-imidazo[4,5-c]quinolin-1-yl]ethylcarbamate]	201 to 202 °C	0.04 µM	0.37 µM

The next lines start with results.

melting point	SMILES	minimal effective concentration [1]	minimal effective concentration [2]
199 to 200 °C	COCCc1nc2c(N)nc3ccccc3c2n1CCCNC(=S)NC1CCCCC1 [Example 157, N-{3-[4-amino-2-(2-methoxyethyl)-1H-imidazo[4,5-c]quinolin-1-yl]propyl}-N′-cyclohexylthiourea]	0.37 µM	1.11 µM
179 to 180 °C	COCCc1nc2c(N)nc3ccccc3c2n1CCCNC(=O)NC1CCCCC1 [Example 158, N-{3-[4-amino-2-(2-methoxyethyl)-1H-imidazo[4,5-c]quinolin-1-yl]propyl}-N′-cyclohexylurea]	0.01 µM	1.11 µM
182.8 to 184 °C	CCCc1nc2c(N)nc3ccccc3c2n1CCCCNC(=O)Nc1ccccc1 [Example 160, N-[4-(4-amino-2-propyl-1H-imidazo[4,5-c]quinolin-1-yl)butyl]-N′-phenylurea]	0.12 µM	1.11 µM
159 to 160 °C	CCCCNC(=O)NCCCn1c(CCOC)nc2c(N)nc3ccccc3c21 [Example 162, N-{3-[4-amino-2-(2-methoxyethyl)-1H-imidazo[4,5-c]quinolin-1-yl]propyl}-N′-butylurea]	0.01 µM	0.04 µM
194 to 196 °C	COCCc1nc2c(N)nc3ccccc3c2n1CCCNC(=O)N1CCOCC1 [Example 163, N-{3-[4-amino-2-(2-methoxyethyl)-1H-imidazo[4,5-c]quinolin-1-yl]propyl}morpholine-4-carboxamide]	0.01 µM	0.01 µM
173 to 175 °C	COCCc1nc2c(N)nc3ccccc3c2n1CCNC(=O)OC(C)(C)C [Example 178, tert-butyl 2-[4-amino-2-(methoxyethyl)-1H-imidazo[4,5-c]quinolin-1-yl]ethylcarbamate]	0.12 µM	1.11 µM
